Experimental data published in patent publication US6737383B1, “Herbicidal oxadiazolidines” (priority 1999, dated 2004).

Experiments:
rape = test: Test B pre/postemergence rape; type: in vivo, Brassica napus
Method in brief: (§1)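 Response is a visual 0-to-10 score relative to untreated plants, where 0 means no effect and 10 means complete control, taken twelve to sixteen days after application. Treatments went onto soil at planting and onto foliage of 1- to 4-leaf plants, using a surfactant-containing non-phytotoxic solvent.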

cocklebur = test: Test B pre/postemergence cocklebur; type: in vivo, Xanthium strumarium
Method in brief: as §1

soybean = test: Test B pre/postemergence soybean; type: in vivo, Glycine max
Method in brief: as §1

purple nutsedge = test: Test B pre/postemergence purple nutsedge; type: in vivo, Cyperus rotundus
Method in brief: as §1

morningglory = test: Test B pre/postemergence morningglory; type: in vivo, Ipomoea hederacea
Method in brief: as §1

wild oat = test: Test B pre/postemergence wild oat; type: in vivo, Avena fatua
Method in brief: as §1

blackgrass = test: Test B pre/postemergence blackgrass; type: in vivo, Alopecurus myosuroides
Method in brief: as §1

giant foxtail = test: Test B pre/postemergence giant foxtail; type: in vivo, Setaria faberii
Method in brief: as §1

pigweed = test: Test B pre/postemergence pigweed; type: in vivo, Amaranthus retroflexus
Method in brief: as §1

bedstraw = test: Test B pre/postemergence bedstraw; type: in vivo, Galium aparine
Method in brief: as §1

wheat = test: Test B pre/postemergence wheat; type: in vivo, Triticum aestivum
Method in brief: as §1

sugar beet = test: Test B pre/postemergence sugar beet; type: in vivo, Beta vulgaris
Method in brief: as §1

surinam grass = test: Test B pre/postemergence surinam grass; type: in vivo, Brachiaria decumbens
Method in brief: as §1

velvetleaf = test: Test B pre/postemergence velvetleaf; type: in vivo, Abutilon theophrasti
Method in brief: as §1

crabgrass = test: Test B pre/postemergence crabgrass; type: in vivo, Digitaria sanguinalis
Method in brief: as §1

corn = test: Test B pre/postemergence corn; type: in vivo, Zea mays
Method in brief: as §1

[1] = Postemergence, Rate 62 g/ha, scale 0 to 10, 0 is no effect, 10 is complete control
[2] = Postemergence, Rate 125 g/ha, scale of 0 to 10 where 0 is no effect and 10 is complete control
[3] = Preemergence, Rate 125 g/ha, scale of 0 to 10 where 0 is no effect and 10 is complete control
[4] = Preemergence, Rate 250 g/ha, scale 0 (no effect) to 10 (complete control)
[5] = Rate 62 g/ha, Preemergence, scale 0 to 10
[6] = Rate 250 g/ha, Postemergence, scale 0 to 10, 0 is no effect, 10 is complete control
[7] = Rate 500 g/ha, Postemergence, scale 0 to 10, 0 is no effect, 10 is complete control
[8] = Rate 500 g/ha, Preemergence, scale 0 to 10 (0 no effect, 10 complete control)

CC(C)N(C(=O)n1oc(=O)n(C[C@H](C)Cl)c1=O)c1ccc(Cl)cc1 [Compound 748]
Plant response rating, Rape (rape; [1]): 0
Rape plant response rating (rape; [2]): 3
Plant response rating, Rape (rape; [3]): 0
Rape plant response rating (rape; [4]): 0
Rape plant response rating (rape; [5]): 0
Rape plant response rating (rape; [6]): 6
Rape plant response rating (rape; [7]): 7
Rape plant response rating (rape; [8]): 7
Plant response rating, Cocklebur (cocklebur; [1]): 0
Cocklebur plant response rating (cocklebur; [2]): 0
Plant response rating, Cocklebur (cocklebur; [3]): 0
Cocklebur plant response rating (cocklebur; [4]): 0
Cocklebur plant response rating (cocklebur; [5]): 0
Cocklebur plant response rating (cocklebur; [6]): 0
Cocklebur plant response rating (cocklebur; [8]): 0
Plant response rating, Soybean (soybean; [1]): 3
Soybean plant response rating (soybean; [2]): 3
Plant response rating, Soybean (soybean; [3]): 0
Soybean plant response rating (soybean; [4]): 0
Soybean plant response rating (soybean; [5]): 0
Soybean plant response rating (soybean; [6]): 4
Soybean plant response rating (soybean; [7]): 5
Soybean plant response rating (soybean; [8]): 0
Plant response rating, Nutsedge (purple nutsedge; [1]): 0
Nutsedge plant response rating (purple nutsedge; [2]): 0
Plant response rating, Nutsedge (purple nutsedge; [3]): 0
Nutsedge plant response rating (purple nutsedge; [4]): 0
Nutsedge plant response rating (purple nutsedge; [5]): 0
Nutsedge plant response rating (purple nutsedge; [6]): 0
Nutsedge plant response rating (purple nutsedge; [7]): 0
Nutsedge plant response rating (purple nutsedge; [8]): 2
Plant response rating, Morningglory (morningglory; [1]): 0
Morningglory plant response rating (morningglory; [2]): 6
Plant response rating, Morningglory (morningglory; [3]): 0
Morningglory plant response rating (morningglory; [4]): 0
Morningglory plant response rating (morningglory; [5]): 0
Morningglory plant response rating (morningglory; [6]): 6
Morningglory plant response rating (morningglory; [7]): 7
Morningglory plant response rating (morningglory; [8]): 0
Plant response rating, Wild oats (wild oat; [1]): 0
Wild oats plant response rating (wild oat; [2]): 0
Plant response rating, Wild oats (wild oat; [3]): 2
Wild oats plant response rating (wild oat; [4]): 2
Wild oats plant response rating (wild oat; [5]): 0
Wild oats plant response rating (wild oat; [6]): 0
Wild oats plant response rating (wild oat; [7]): 0
Wild oats plant response rating (wild oat; [8]): 8
Plant response rating, Blackgrass (blackgrass; [1]): 5
Blackgrass plant response rating (blackgrass; [2]): 6
Plant response rating, Blackgrass (blackgrass; [3]): 3
Blackgrass plant response rating (blackgrass; [5]): 0
Blackgrass plant response rating (blackgrass; [6]): 7
Blackgrass plant response rating (blackgrass; [7]): 8
Blackgrass plant response rating (blackgrass; [8]): 9
Plant response rating, Giant foxtail (giant foxtail; [1]): 2
Giant foxtail plant response rating (giant foxtail; [2]): 6
Plant response rating, Giant foxtail (giant foxtail; [3]): 10
Giant foxtail plant response rating (giant foxtail; [4]): 10
Giant foxtail plant response rating (giant foxtail; [5]): 9
Giant foxtail plant response rating (giant foxtail; [6]): 8
Giant foxtail plant response rating (giant foxtail; [7]): 9
Giant foxtail plant response rating (giant foxtail; [8]): 10
Plant response rating, Redroot pigweed (pigweed; [1]): 2
Redroot pigweed plant response rating (pigweed; [2]): 4
Plant response rating, Redroot pigweed (pigweed; [3]): 10
Redroot pigweed plant response rating (pigweed; [4]): 10
Redroot pigweed plant response rating (pigweed; [5]): 4
Redroot pigweed plant response rating (pigweed; [6]): 6
Redroot pigweed plant response rating (pigweed; [7]): 8
Redroot pigweed plant response rating (pigweed; [8]): 10
Plant response rating, Bedstraw (bedstraw; [1]): 5
Bedstraw plant response rating (bedstraw; [2]): 6
Plant response rating, Bedstraw (bedstraw; [3]): 0
Bedstraw plant response rating (bedstraw; [4]): 0
Bedstraw plant response rating (bedstraw; [6]): 9
Bedstraw plant response rating (bedstraw; [7]): 9
Bedstraw plant response rating (bedstraw; [8]): 0
Plant response rating, Wheat (wheat; [1]): 0
Wheat plant response rating (wheat; [2]): 0
Plant response rating, Wheat (wheat; [3]): 0
Wheat plant response rating (wheat; [4]): 0
Wheat plant response rating (wheat; [5]): 0
Wheat plant response rating (wheat; [6]): 0
Wheat plant response rating (wheat; [8]): 5
Plant response rating, Sugarbeets (sugar beet; [1]): 0
Sugarbeets plant response rating (sugar beet; [2]): 2
Plant response rating, Sugarbeets (sugar beet; [3]): 0
Sugarbeets plant response rating (sugar beet; [4]): 2
Sugarbeets plant response rating (sugar beet; [5]): 0
Sugarbeets plant response rating (sugar beet; [6]): 6
Sugarbeets plant response rating (sugar beet; [7]): 7
Sugarbeets plant response rating (sugar beet; [8]): 7
Plant response rating, B. signalgrass (surinam grass; [1]): 2
B. signalgrass plant response rating (surinam grass; [2]): 2
B. signalgrass plant response rating (surinam grass; Preemergence, Rate 62 g/ha, scale of 0 to 10 where 0 is no effect and 10 is complete control): 0
Plant response rating, B. signalgrass (surinam grass; [3]): 3
B. signalgrass plant response rating (surinam grass; [4]): 3
B. signalgrass plant response rating (surinam grass; [6]): 4
B. signalgrass plant response rating (surinam grass; [7]): 7
B. signalgrass plant response rating (surinam grass; [8]): 10
Plant response rating, Velvetleaf (velvetleaf; [1]): 0
Velvetleaf plant response rating (velvetleaf; [2]): 0
Plant response rating, Velvetleaf (velvetleaf; [3]): 0
Velvetleaf plant response rating (velvetleaf; [4]): 0
Velvetleaf plant response rating (velvetleaf; [5]): 0
Velvetleaf plant response rating (velvetleaf; [6]): 0
Velvetleaf plant response rating (velvetleaf; [7]): 4
Velvetleaf plant response rating (velvetleaf; [8]): 0
Plant response rating, Crabgrass (crabgrass; [1]): 2
Crabgrass plant response rating (crabgrass; [2]): 3
Plant response rating, Crabgrass (crabgrass; [3]): 10
Crabgrass plant response rating (crabgrass; [4]): 10
Crabgrass plant response rating (crabgrass; [5]): 9
Crabgrass plant response rating (crabgrass; [6]): 8
Crabgrass plant response rating (crabgrass; [7]): 9
Crabgrass plant response rating (crabgrass; [8]): 10
Plant response rating, Corn (corn; [1]): 0
Corn plant response rating (corn; [2]): 0
Plant response rating, Corn (corn; [3]): 0
Corn plant response rating (corn; [4]): 0
Corn plant response rating (corn; [5]): 0
Corn plant response rating (corn; [6]): 0
Corn plant response rating (corn; [7]): 0
Corn plant response rating (corn; [8]): 4
